In assay [1] the target is Nuclear receptor subfamily 5 group A member 2 (Homo sapiens, UniProt O00482). The class given is functional, cell-based.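 Note: HEK293T cells transfected with LRH-1 and a StAR promoter luciferase reporter; potency for inhibitors that lower LRH-1 driven reporter light.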
The next assay concerns the target Steroidogenic factor 1 (Homo sapiens, UniProt Q13285). The experiment in a line: Counterscreen for inverse agonists of the liver receptor homolog-1 (LRH-1; NR5A2): Luminescence-based cell-based high throughput dose response assay to identify inverse agonists of the Steroidogenic Factor 1 Nuclear Receptor (SF1; NR5A1). The class given is functional. For orientation: The purpose of a counterscreen is to sort out artefacts and off-target activity.

A short description of assay [2]: StAR promoter reporter inhibition counter-screen, dose response, counter-screen for LRH-1 inverse agonist project, cell-based, luminescence, luciferase reporter (AID 651969). The class given is functional.
The target of assay [3] is T1, Fructose-bisphosphate aldolase (Mycobacterium tuberculosis, UniProt P9WQA3).
T1 sequence (P9WQA3 whole entry): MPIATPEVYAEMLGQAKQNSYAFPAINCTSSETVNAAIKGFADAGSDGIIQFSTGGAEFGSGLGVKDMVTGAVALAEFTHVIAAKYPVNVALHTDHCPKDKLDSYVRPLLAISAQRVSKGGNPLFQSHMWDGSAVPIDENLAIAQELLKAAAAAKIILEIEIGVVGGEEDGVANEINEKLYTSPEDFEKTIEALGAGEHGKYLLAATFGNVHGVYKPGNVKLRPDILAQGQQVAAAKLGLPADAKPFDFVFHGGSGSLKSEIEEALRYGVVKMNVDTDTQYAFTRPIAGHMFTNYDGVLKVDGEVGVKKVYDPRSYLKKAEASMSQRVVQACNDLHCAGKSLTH
Kind of assay: Fluorescence-based biochemical high throughput dose response assay for inhibitors of the fructose-bisphosphate aldolase (FBA) of M. tuberculosis. Type of assay: functional.

Assay [4] can be described thus: A549 cell cytotoxicity, dose response, cytotoxicity control, plate reader, cherry-pick, antagonist series (AID 743412). Type of assay: functional, cell-based.
Assay [5] in a line: LGR2 antagonists, dose response, cell-based, HEK293, CRE-luciferase reporter, cherry pick, set 2 (AID 743343).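 Note: transfected cells were stimulated with diluted bursicon conditioned medium after compound addition.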 Type of assay: functional. In general terms: In a reporter assay the amount or activity of a reporter protein is the signal.
A short description of assay [6]: MC4R antagonists, dose response, counter-screen for LGR2 antagonist project, cell-based, plate reader, cherry pick (AID 743444).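 Note: transfected HEK 293 cells stimulated with alpha-MSH peptide; potency of inhibitors of the alpha-MSH evoked signal.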 Type of assay: functional.
The target of another assay is T2, Protein skinhead-1 (Caenorhabditis elegans, UniProt P34707).
T2 sequence (P34707 whole entry): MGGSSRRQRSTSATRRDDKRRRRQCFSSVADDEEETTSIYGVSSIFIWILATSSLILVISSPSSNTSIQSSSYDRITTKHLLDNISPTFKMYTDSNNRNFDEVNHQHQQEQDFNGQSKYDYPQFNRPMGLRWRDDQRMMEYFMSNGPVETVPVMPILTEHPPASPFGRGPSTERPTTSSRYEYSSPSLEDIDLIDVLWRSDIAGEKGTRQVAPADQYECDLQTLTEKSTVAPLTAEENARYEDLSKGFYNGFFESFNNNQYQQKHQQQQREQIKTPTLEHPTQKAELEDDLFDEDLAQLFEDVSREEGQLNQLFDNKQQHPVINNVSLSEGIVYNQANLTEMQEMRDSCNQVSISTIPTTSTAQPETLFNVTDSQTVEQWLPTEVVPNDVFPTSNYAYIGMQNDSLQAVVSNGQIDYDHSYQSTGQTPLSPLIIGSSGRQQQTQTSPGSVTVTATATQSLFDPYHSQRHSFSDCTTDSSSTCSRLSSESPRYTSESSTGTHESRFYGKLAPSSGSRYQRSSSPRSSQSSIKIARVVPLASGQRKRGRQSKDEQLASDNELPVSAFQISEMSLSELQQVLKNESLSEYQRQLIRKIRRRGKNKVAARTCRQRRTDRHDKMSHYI
Type of assay: functional.

A short description of assay [7]: HEK293T cytotoxicity, dose response, cytotoxicity control for miR-122 modulator project, cell-based, inhibitor set, cherry-pick, set 2 (AID 720697). Type of assay: functional.
Assay [8] is described as follows: cells. The class given is functional, cell-based.
Assay [9] is described as follows: cells. Type of assay: functional, cell-based. This is another data set of the same source.
Assay [10] deals with T3, Oxysterols receptor LXR-beta (Homo sapiens, UniProt P55055).
T3 sequence (P55055 whole entry): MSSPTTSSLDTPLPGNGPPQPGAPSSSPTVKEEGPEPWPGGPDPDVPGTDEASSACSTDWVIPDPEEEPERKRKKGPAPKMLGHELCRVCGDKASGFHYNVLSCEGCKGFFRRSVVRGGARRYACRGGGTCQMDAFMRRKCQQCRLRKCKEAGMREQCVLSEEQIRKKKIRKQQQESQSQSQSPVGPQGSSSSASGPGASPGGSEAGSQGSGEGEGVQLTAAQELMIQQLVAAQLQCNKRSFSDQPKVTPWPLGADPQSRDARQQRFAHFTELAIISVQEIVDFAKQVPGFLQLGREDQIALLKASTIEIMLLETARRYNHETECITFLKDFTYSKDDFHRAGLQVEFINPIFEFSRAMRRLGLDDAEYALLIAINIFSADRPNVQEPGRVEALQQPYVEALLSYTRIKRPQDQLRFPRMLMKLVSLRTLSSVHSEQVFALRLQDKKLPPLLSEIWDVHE
The class given is functional, cell-based.

Assay [11] in a line: Luminescence-based cell-based high throughput dose response assay to identify activators of the DAF-12 from the parasite S. stercoralis (ssDAF-12). The class given is functional.
Assay [12] in a line: Counterscreen for inhibitors of Trypanosoma brucei methionyl tRNA synthetase (MetRS): Luminescence-based cell-based high throughput dose response assay to identify compounds that are cytotoxic to Jurkat human T lymphocyte cells. The class given is functional.
In assay [13] the target is T4, Methionyl-tRNA synthetase, putative (Trypanosoma brucei brucei, UniProt Q38C91).
T4 sequence (Q38C91 whole entry): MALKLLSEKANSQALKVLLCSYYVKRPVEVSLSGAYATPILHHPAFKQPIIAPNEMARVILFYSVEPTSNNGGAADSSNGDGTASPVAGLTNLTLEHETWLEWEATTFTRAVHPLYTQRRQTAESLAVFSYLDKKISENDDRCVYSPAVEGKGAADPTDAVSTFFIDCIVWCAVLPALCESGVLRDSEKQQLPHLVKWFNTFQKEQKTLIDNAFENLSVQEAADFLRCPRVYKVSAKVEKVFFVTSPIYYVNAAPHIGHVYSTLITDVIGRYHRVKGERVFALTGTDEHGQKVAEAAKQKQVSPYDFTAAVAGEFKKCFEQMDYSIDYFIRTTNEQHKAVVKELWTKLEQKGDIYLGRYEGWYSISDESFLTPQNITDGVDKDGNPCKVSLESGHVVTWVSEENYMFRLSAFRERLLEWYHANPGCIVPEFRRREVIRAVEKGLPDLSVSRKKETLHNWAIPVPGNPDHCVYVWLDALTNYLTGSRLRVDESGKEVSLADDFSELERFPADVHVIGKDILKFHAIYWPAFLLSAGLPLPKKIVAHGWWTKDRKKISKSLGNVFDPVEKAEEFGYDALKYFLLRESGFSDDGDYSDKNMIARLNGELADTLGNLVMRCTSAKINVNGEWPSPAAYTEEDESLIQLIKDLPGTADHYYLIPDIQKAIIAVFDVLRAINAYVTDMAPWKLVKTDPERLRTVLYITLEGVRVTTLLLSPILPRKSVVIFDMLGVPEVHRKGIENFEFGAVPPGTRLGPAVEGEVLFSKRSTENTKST
Type of assay: functional, Trypanosoma brucei brucei strain 927/4 GUTat10.1.

Assay [14] concerns the target T4, Methionyl-tRNA synthetase, putative. The class given is functional, Trypanosoma brucei brucei strain 927/4 GUTat10.1. The source holds these as a separate data set.
Assay [15] is described as follows: miR-122 activators in hepatoma reporter cells, dose response, cell-based, Huh7 psiCHECK-miR122, Renilla luciferase, cherry-picked (AID 651956).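 Note: huh7 hepatoma cells stably carrying a psiCHECK-2 miR-122 sensor plasmid; renilla luciferase signal reporting endogenous miR-122 activity after 48 h compound exposure.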 The class given is functional.

Calls of active or inactive are those of the source. Bounds are passed on as bounds.

Sequence of Steroidogenic factor 1 (Q13285 whole entry): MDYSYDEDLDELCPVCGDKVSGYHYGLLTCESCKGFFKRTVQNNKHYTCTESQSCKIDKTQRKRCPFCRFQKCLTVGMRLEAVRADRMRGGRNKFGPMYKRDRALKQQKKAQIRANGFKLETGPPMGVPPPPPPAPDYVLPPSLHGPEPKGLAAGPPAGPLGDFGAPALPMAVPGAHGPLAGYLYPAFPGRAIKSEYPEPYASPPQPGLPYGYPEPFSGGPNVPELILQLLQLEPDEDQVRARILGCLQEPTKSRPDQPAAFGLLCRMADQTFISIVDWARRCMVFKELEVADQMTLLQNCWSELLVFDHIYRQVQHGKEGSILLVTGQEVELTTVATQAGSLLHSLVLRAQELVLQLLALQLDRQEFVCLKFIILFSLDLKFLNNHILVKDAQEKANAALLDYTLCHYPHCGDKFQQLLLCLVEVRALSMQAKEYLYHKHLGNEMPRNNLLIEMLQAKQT
Sequence of Nuclear receptor subfamily 5 group A member 2 (O00482 whole entry): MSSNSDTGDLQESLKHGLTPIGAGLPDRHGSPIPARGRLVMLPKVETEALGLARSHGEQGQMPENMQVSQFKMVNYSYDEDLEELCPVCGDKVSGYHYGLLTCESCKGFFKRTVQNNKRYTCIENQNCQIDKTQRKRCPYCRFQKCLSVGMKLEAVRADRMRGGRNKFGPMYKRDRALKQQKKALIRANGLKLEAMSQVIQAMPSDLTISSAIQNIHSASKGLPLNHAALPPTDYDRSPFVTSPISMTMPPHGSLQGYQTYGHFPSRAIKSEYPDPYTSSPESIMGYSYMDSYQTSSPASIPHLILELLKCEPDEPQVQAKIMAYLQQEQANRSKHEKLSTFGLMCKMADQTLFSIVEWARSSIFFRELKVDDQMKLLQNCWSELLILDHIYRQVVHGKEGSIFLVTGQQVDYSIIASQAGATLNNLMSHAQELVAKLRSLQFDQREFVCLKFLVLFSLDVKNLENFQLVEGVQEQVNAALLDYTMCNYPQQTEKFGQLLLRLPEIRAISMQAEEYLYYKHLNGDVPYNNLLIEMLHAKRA

Regarding `CCCN(CC(=O)Nc1ccc(C(N)=O)cc1)CC(=O)Nc1ccccc1C`, the figures for the IC50 (in [1]; on Steroidogenic factor 1; in [2]) were 5.11 µM (active), 2.88 µM (active) and 24.9 µM (inactive), respectively.

Turning to `COc1ccc2oc(=N)c(-c3nnc4n3CCCCC4)cc2c1`, the IC50 – broadly, the point on the concentration scale where inhibition reaches its midpoint – in assay [3] is 4.68 µM (active). For the compound `COc1ccc(-c2cc(C(=O)Nc3cccc(O)c3)no2)cc1`, the figures for the AC50 in assay [4], in assay [5] and in [6] were > 52 µM (inactive), 9.77 µM (active) and 7.86 µM (active), respectively.

For `COc1ccc(CNCCC(c2ccc(OC)cc2)c2ccccc2OC)cc1` (stereo unspecified), the IC50 on Protein skinhead-1 is > 100 µM (inactive). Moreover, the AC50 (usually the concentration at which the activity in the assay is half-maximal) in assay [7] was 3.94 µM (active). In the case of `COc1ccccc1CCNCc1cc2c(cc1[N+](=O)[O-])OCO2`, in “cells [8]”, the IC50 is > 29.9 µM (inactive). In addition, the EC50 (usually the concentration that produces a half-maximal response) in the assay “cells [9]” is > 29.9 µM (inactive).

Consider `CCOc1ccc(NC(=O)COC(=O)C2CCC(=O)N2)c([N+](=O)[O-])c1` (stereo unspecified), for which the IC50 (in [1]; at Steroidogenic factor 1; in [2]) was 35.8 µM (inactive) throughout.

Regarding `Cc1ccc(SCCSc2ncccn2)cc1`, the EC50 in assay [10] was > 67.5 µM (inactive). For the compound `Cc1cc(OCC(=O)NCC(O)c2ccccc2)c2c(C)cc(=O)oc2c1` (stereo unspecified), the IC50 in [3] is 1.26 µM (active).

As for `CC(=O)c1ccc2c3c(cccc13)C(=O)N(CCc1ccccc1)C2=O`, the IC50 in the assay “cells [8]” is > 29.9 µM (inactive); in assay [11] it was > 67.5 µM (inactive). Further, in the assay “cells [9]”, the EC50 is > 29.9 µM (inactive). As to `COc1ccc2c(c1)cc(C(=O)N[C@@H](Cc1ccccc1)C(=O)N[C@@H](C)C(=O)O)n2C`, the IC50 in assay [3] was 1.29 µM (active). `CN(C(=O)CSc1nc2cc(Cl)ccc2[nH]1)C1CCS(=O)(=O)C1` (stereo unspecified): the IC50 in assay [12] is 83.2 µM (inactive). `CN(C(=O)CSc1nc2ccc(Cl)cc2[nH]1)C1CCS(=O)(=O)C1` (stereo unspecified): the IC50 was 64.5 µM (inactive) in assay [13] and 21.7 µM (inactive) in [14]. With `OC(c1cccc(Cl)c1)c1nc(-c2ccc3ccccc3c2)c[nH]1` (stereo unspecified), the IC50 was 14.2 µM (inactive) in assay [13], 83.3 µM (inactive) in assay [12] and 5.6 µM (active) in assay [14]. On to `Cc1cccc(NC(=O)Nc2ccc3c(c2)C(=O)N(C)[C@@H]2CC[C@@H](CC(=O)NCc4ccccc4Cl)O[C@H]2CO3)c1`, for which, in [15], the AC50 was 3.32 µM (active). Still for that read-out and setting: the figure for `Cc1noc(C)c1NC(=O)N(C)C[C@@H]1Oc2cc(C#CCC3CCCC3)ccc2S(=O)(=O)N([C@@H](C)CO)C[C@@H]1C` is 18.9 µM (active). In the case of `Cc1no[n+]([O-])c1COc1ccc(/C=N/n2nnnc2N)cc1`, the results for the IC50 (in assay [1]; at Steroidogenic factor 1; in [2]) were 35.9 µM (inactive), 12 µM (inactive) and 35.9 µM (inactive), respectively.

The values are drawn from ChEMBL document CHEMBL1201862, “PubChem BioAssay data set” (2004).
